# Experimental data taken from ChEMBL document CHEMBL5375954, “Discovery and Evaluation of C6-Substituted Pyrazolopyrimidine-Based Bisphosphonate Inhibitors of the Human Geranylgeranyl Pyrophosphate Synthase and Evaluation of Their Antitumor Efficacy in Multiple Myeloma, Pancreatic Ductal Adenocarcinoma, and Colorectal Cancer” (J Med Chem, 2023).
# Active and inactive are the calls of the source. The calls are words filed in the database; no cut-off is given here.
# What was measured:
# RPMI-8226 [1] = test: cells; conditions: Homo sapiens, RPMI-8226, 72 h
# [2] = biological target: T1, Geranylgeranyl pyrophosphate synthase (Homo sapiens, UniProt O95749); test: Inhibition of N-terminal His6 tagged human GGPPS expressed in Escherichia coli BL21(DE3) cells in presence of FPP and [14C]IPP by scintillation counting analysis
# T1 sequence (O95749 whole entry): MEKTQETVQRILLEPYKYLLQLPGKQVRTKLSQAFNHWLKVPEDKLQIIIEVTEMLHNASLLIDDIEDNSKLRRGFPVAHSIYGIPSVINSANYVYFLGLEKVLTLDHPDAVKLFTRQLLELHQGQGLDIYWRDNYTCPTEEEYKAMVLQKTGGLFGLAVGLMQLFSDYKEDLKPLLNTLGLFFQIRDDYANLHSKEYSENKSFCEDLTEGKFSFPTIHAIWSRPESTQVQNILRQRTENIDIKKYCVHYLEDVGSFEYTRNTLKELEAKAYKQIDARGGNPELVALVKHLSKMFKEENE
# MIA PaCa-2 [3] = test: Antiproliferative activity against human MIA PaCa-2 cells assessed as inhibition of cell growth at 1 uM incubated for 72 hrs by MTS assay; format: functional, cell-based
# [4] = biological target: T2, Farnesyl pyrophosphate synthase (Homo sapiens) (UniProt P14324); test: Inhibition of N-terminally His6-tagged recombinant human FPPS expressed in Escherichia coli BL21(DE3) cells using […] and [14C]IPP as substrate at 1 uM preincubated for 10 mins followed by substrate addition by scintillation counting analysis relative to control
# T2 sequence (whole entry): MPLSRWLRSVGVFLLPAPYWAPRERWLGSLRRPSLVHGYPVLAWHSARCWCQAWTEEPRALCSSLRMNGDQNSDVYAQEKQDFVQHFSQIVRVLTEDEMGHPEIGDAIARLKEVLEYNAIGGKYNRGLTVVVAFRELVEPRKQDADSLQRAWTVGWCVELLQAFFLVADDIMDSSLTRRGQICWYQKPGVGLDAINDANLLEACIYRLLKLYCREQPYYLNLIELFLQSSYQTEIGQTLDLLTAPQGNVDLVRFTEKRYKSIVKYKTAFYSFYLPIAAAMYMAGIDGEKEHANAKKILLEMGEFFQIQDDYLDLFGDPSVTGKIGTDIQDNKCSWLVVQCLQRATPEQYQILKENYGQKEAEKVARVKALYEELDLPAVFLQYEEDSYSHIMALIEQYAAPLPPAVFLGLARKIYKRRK
# HCT-116 [5] = test: Antiproliferative activity against human HCT-116 cells assessed as inhibition of cell growth at 1 uM incubated for 72 hrs by MTS assay; format: functional, cell-based
# JJN-3 = test: Antiproliferative activity against human JJN-3 cells harboring wild type KRAS at 0.1 to 10000 nM incubated for 72 hrs by MTS assay; format: functional, cell-based; conditions: dose 0.1-10000 nM
# RPMI-8226 [6] = test: Antiproliferative activity against human RPMI-8226 cells harboring KRAS G12A mutant at 0.1 to 10000 nM incubated for 72 hrs by MTS assay; format: functional, cell-based; conditions: dose 0.1-10000 nM
# [7] = Cytotoxicity against wild type mouse normal ductal organoid [N(10128)] at 1 uM incubated for 72 hrs by CellTiter-Glo luminescence based analysis; format: toxicity, tissue-based
# [8] = biological target: T3, Ras-related protein Rap-1A (Homo sapiens) (UniProt P62834); test: Inhibition of RAP-1A prenylation in human MIA PaCa-2 cells incubated for 48 hrs by Western blot analysis; format: cell-based; conditions: dose 10-1000 nM
# T3 sequence (whole entry): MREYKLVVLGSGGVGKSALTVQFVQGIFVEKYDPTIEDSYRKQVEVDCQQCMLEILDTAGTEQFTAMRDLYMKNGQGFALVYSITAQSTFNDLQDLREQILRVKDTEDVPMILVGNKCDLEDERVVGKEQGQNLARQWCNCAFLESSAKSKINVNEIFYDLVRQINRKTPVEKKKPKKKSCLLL
# Mus musculus = species on record: Mus musculus; test: Cytotoxicity against KPC mouse pancreatic cancer organoid ccmT4 at 1 uM incubated for 72 hrs by CellTiter-Glo luminescence based analysis; format: functional, tissue-based
# RPMI-8226 [9] = test: Induction of ER stress in human RPMI-8226 cells at 1 uM; format: functional, cell-based
# [10] = Cytotoxicity against Normal human bronchial epithelial cells assessed as inhibition of cell growth at 10 uM incubated for 72 hrs by MTS assay relative to control; format: toxicity, cell-based
# [11] = biological target: T3, Ras-related protein Rap-1A (Homo sapiens); test: Inhibition of RAP-1A prenylation in human HCT-116 cells incubated for 48 hrs by Western blot analysis; format: cell-based; conditions: dose 10-1000 nM
# KMS-28PE = test: Antiproliferative activity against human KMS-28-PE cells harboring KRAS G12A mutant at 0.1 to 10000 nM incubated for 72 hrs by MTS assay; format: functional, cell-based; conditions: dose 0.1-10000 nM
# KMS-12-PE = test: Antiproliferative activity against human KMS-12-PE cells harboring wild type KRAS at 0.1 to 10000 nM incubated for 72 hrs by MTS assay; format: functional, cell-based; conditions: dose 0.1-10000 nM
# [12] = Cytotoxicity against human IMR-90 cells assessed as inhibition of cell growth incubated for 72 hrs by MTS assay; format: toxicity, cell-based
# [13] = Cytotoxicity against Normal human bronchial epithelial cells assessed as inhibition of cell growth incubated for 72 hrs by MTS assay; format: toxicity, cell-based
# MIA PaCa-2 [14] = test: cells; conditions: Homo sapiens, MIA PaCa-2, 72 h
# HCT-116 [15] = test: cells; conditions: Homo sapiens, HCT-116, 72 h
# [16] = Cytotoxicity against wild type mouse normal ductal organoid [N(10128)] at low nM concentrations incubated for 72 hrs by CellTiter-Glo luminescence based analysis; format: toxicity, tissue-based
Compound,EC50 (RPMI-8226 [1]) [nM],IC50 [2] [nM],also measured
Cn1cnc2c(NC(P(=O)(O)O)P(=O)(O)O)nc(-c3cccc(C(=O)Nc4ccc(F)cc4)c3)nc21,670,41,–
CCn1cc2c(NC(P(=O)(O)O)P(=O)(O)O)nc(-c3cccc(C(=O)Nc4ccc(OC)c(F)c4)c3)nc2n1,552,67,–
CCn1ncc2c(NC(P(=O)(O)O)P(=O)(O)O)nc(-c3cccc(C(=O)Nc4ccc(OC)c(F)c4)c3)nc21,> 1000,40,Activity (MIA PaCa-2 [3]): inactive; inhibition [4]: < 10%; Activity (HCT-116 [5]): inactive
COc1ccc(NC(=O)c2cccc(-c3nc(NC(P(=O)(O)O)P(=O)(O)O)c4cn[nH]c4n3)c2)cc1F,640,25,Activity (MIA PaCa-2 [3]): inactive; inhibition [4]: 10%; Activity (HCT-116 [5]): inactive
CC(C)n1ncc2c(NC(P(=O)(O)O)P(=O)(O)O)nc(-c3cccc(C(=O)Nc4ccc(C(F)(F)F)cc4)c3)nc21,> 1000,20,–
O=C(Nc1ccc(C(F)(F)F)cc1)c1cccc(-c2nc(NC(P(=O)(O)O)P(=O)(O)O)c3cn[nH]c3n2)c1,> 1000,8,–
O=C(Nc1ccc(F)cc1)c1cccc(-c2nc(NC(P(=O)(O)O)P(=O)(O)O)c3cn[nH]c3n2)c1,> 1000,39,–
COc1ccc(NC(=O)c2cccc(-c3nc(NC(P(=O)(O)O)P(=O)(O)O)c4ccsc4n3)c2)cc1F,–,–,"Activity (JJN-3): Active; Activity (RPMI-8226 [6]): Active; Activity [7]: Non-Toxic; inhibition [8]: Dose-Dependent Effect; Activity (Mus musculus): Active; Activity (RPMI-8226 [9]): Active; inhibition at 72 h, 10 µM [10]: ~30%; inhibition [11]: Dose-Dependent Effect; Activity (KMS-28PE): Active; Activity (KMS-12-PE): Active"
CCn1ncc2c(NC(P(=O)(O)O)P(=O)(O)O)nc(-c3cccc(C(=O)Nc4ccc(C(F)(F)F)cc4)c3)nc21,> 1000,30,–
COc1cccc2c1C(=O)c1c(O)c3c(c(O)c1C2=O)C[C@@](O)(C(=O)CO)C[C@@H]3O[C@H]1C[C@H](N)[C@H](O)[C@H](C)O1 [DOXORUBICIN],–,–,Activity [7]: Toxic; Activity (Mus musculus): Active; EC50 at 72 h [12]: 360 nM; EC50 at 72 h [13]: 450 nM; EC50 (MIA PaCa-2 [14]): 130 nM; EC50 (HCT-116 [15]): 41 nM
Nc1ccn([C@@H]2O[C@H](CO)[C@@H](O)C2(F)F)c(=O)n1 [GEMCITABINE],–,–,Activity [16]: Toxic; EC50 (MIA PaCa-2 [14]): 2 nM; EC50 (HCT-116 [15]): 4 nM
COc1ccc(NC(=O)c2cccc(-c3nc(NC(P(=O)(O)O)P(=O)(O)O)c4cnn(C(C)C)c4n3)c2)cc1F,> 1000,41,Activity (MIA PaCa-2 [3]): inactive; inhibition [4]: < 10%; Activity (HCT-116 [5]): inactive
CC(C)n1ncc2c(NC(P(=O)(O)O)P(=O)(O)O)nc(-c3cccc(C(=O)Nc4ccc(F)cc4)c3)nc21,> 1000,30,–
CCn1ncc2c(NC(P(=O)(O)O)P(=O)(O)O)nc(-c3cccc(C(=O)Nc4ccc(F)cc4)c3)nc21,> 1000,29,–

# Further lines, with some results ahead:
EC50 (RPMI-8226 [1]) [nM],IC50 [2] [nM],Compound,also measured
170,58,COc1ccc(NC(=O)c2cccc(-c3nc(NC(P(=O)(O)O)P(=O)(O)O)c4ncn(C)c4n3)c2)cc1F,Activity (MIA PaCa-2 [3]): inactive; inhibition [4]: < 10%; Activity (HCT-116 [5]): inactive
150,48,COc1ccc(NC(=O)c2cccc(-c3nc(NC(P(=O)(O)O)P(=O)(O)O)c4cnn(C)c4n3)c2)cc1F,Activity (MIA PaCa-2 [3]): inactive; inhibition [4]: < 10%; Activity (HCT-116 [5]): inactive
120,18,O=C(Nc1ccc(F)cc1)c1cccc(-c2nc(NC(P(=O)(O)O)P(=O)(O)O)c3ccsc3n2)c1,–
160,12,O=C(Nc1ccc(C(F)(F)F)cc1)c1cccc(-c2nc(NC(P(=O)(O)O)P(=O)(O)O)c3ccsc3n2)c1,–
440,31,Cn1ncc2c(NC(P(=O)(O)O)P(=O)(O)O)nc(-c3cccc(C(=O)Nc4ccc(F)cc4)c3)nc21,–
510,13,Cn1cnc2c(NC(P(=O)(O)O)P(=O)(O)O)nc(-c3cccc(C(=O)Nc4ccc(C(F)(F)F)cc4)c3)nc21,–
520,56,COc1ccc(NC(=O)c2cccc(-c3nc(NC(P(=O)(O)O)P(=O)(O)O)c4cn(C)nc4n3)c2)cc1F,inhibition [4]: 15%
